Experimental data reported in publication PMC11823630, “In vitro potentiation of tetracyclines in Pseudomonas aeruginosa by RW01, a new cyclic peptide” (Antimicrobial Agents and Chemotherapy, 2024).
Values after ≈ are worked out from the molar mass of the structure shown.

What was measured:
P. aeruginosa 125A = test: MIC, CLSI broth microdilution in BD Phoenix AST Broth; type: cell-based, Pseudomonas aeruginosa; details: strain 125A; for MIC: Pseudomonas aeruginosa, agent alone, 37°C, 18–22 h, three biological replicates
Description: (§1) MIC for RW01 was also tested.
(§2) FIC of RW01 (FICRW01)=MIC of RW01 in combination/MIC of RW01 alone,FIC of antibiotic (FICATB)=MIC of ATB in combination/MIC of ATB alone,FICI=FICRW01 +FICATB.
(§3) FICI was interpreted as follows: synergistic effect if FICI is ≤0.5; additive effect if 0.5 < FICI ≤ 1.0; indifferent effect if 1.0 < FICI ≤ 2.0; and finally, antagonistic effect if FICI is >2.0. The average FICI considering the antibiotic MIC (no growth in any of the replicates) at different concentrations of RW01 was calculated ([28]).

P. aeruginosa PAOΔoprM = test: as above; type: cell-based, Pseudomonas aeruginosa; details: Pseudomonas aeruginosa
Description: as §1, §2, §3

P. aeruginosa 41B = test: as above; type: cell-based, Pseudomonas aeruginosa; details: Pseudomonas aeruginosa; strain 41B; agent alone; 37°C, 18–22 h; three biological replicates
Description: as §1, §2, §3

P. aeruginosa PAOUW∆oprF = test: as above; type: cell-based, Pseudomonas aeruginosa; details: Pseudomonas aeruginosa, strain PAOUWΔoprF; agent alone; 37°C, 18–22 h; three biological replicates
Description: as §1, §2, §3

P. aeruginosa PAOΔmexZ = test: as above; type: cell-based, Pseudomonas aeruginosa; details: Pseudomonas aeruginosa, strain PAOΔmexZ; agent alone; 37°C, 18–22 h; three biological replicates
Description: as §1, §2, §3

P. aeruginosa 41A = test: as above; type: cell-based, Pseudomonas aeruginosa; details: Pseudomonas aeruginosa; strain 41A; agent alone; 37°C, 18–22 h; three biological replicates
Description: as §1, §2, §3

P. aeruginosa 125B = test: as above; type: cell-based, Pseudomonas aeruginosa; details: strain 125B; for MIC: Pseudomonas aeruginosa, agent alone, 37°C, 18–22 h, three biological replicates
Description: as §1, §2, §3

P. aeruginosa PAO1 = test: as above; type: cell-based, Pseudomonas aeruginosa; details: Pseudomonas aeruginosa, PAO1, strain PAO1; agent alone; 37°C, 18–22 h; three biological replicates; read-out: MIC
Description: as §1, §2, §3

P. aeruginosa PAOΔmexR = test: as above; type: cell-based, Pseudomonas aeruginosa; details: Pseudomonas aeruginosa
Description: as §1, §2, §3

P. aeruginosa PAOUW = test: as above; type: cell-based, Pseudomonas aeruginosa; details: Pseudomonas aeruginosa, strain PAOUW; agent alone; 37°C, 18–22 h; three biological replicates; read-out: MIC
Description: as §1, §2, §3

[1] = test system: PAO1 mutant MIN4_RW01_2, pmrB(F124S); test: microbe, parasite or virus in culture; type: cell-based; details: Pseudomonas aeruginosa, PAO1, read-out: MIC, Sensititre
Description: (§4) Selection of resistant mutants was performed for minocycline with and without RW01 in three independent replicates for wild-type P. aeruginosa reference strain PAO1. Tubes containing Mueller-Hinton broth (MHB) were inoculated and incubated for 24 h at 37°C. Afterward, 1/100 dilution of each tube was incubated at 37°C in MHB to late-exponential growth phase, measured by spectrophotometry at OD600. […] A control plate without antibiotic was included as inoculum control. After overnight incubation, colony counting of each treatment was performed to analyze the generation of resistant population. The mutant prevention concentration (MPC) was defined as the lowest concentration of antibiotic yielding no growth of resistant mutants. Selected mutants were checked for susceptibility profiles by using a Sensititre custom plate (Thermo Fisher Scientific, Massachusetts, USA) for Gram-negative bacteria, following the manufacturer’s instructions.

[2] = test system: PAO1 mutant MIN1_RW01_4, pmrB(F124L); test: microbe, parasite or virus in culture; type: cell-based; details: Pseudomonas aeruginosa, PAO1, read-out: MIC, Sensititre
Description: as §4

[3] = test system: PAO1 mutant MIN16_3, nfxB(nt79∆14), pilB(N349K); test: MIC, Sensititre custom plate; type: cell-based; details: Pseudomonas aeruginosa, PAO1, read-out: MIC, Sensititre
Description: as §4

[4] = test system: PAO1 mutant MIN16_1, nalD(T43P); test: MIC, Sensititre custom plate; type: cell-based; details: Pseudomonas aeruginosa, PAO1, read-out: MIC, Sensititre
Description: as §4

[5] = test system: PAO1 mutant MIN8_2, pilZ(nt18InsT); test: MIC, Sensititre custom plate; type: cell-based; details: Pseudomonas aeruginosa, PAO1, read-out: MIC, Sensititre
Description: as §4

[6] = test system: PAO1 mutant MIN4_RW01_1, pmrB(R429H); test: MIC, Sensititre custom plate; type: cell-based; details: Pseudomonas aeruginosa, PAO1, read-out: MIC, Sensititre
Description: as §4

[7] = test system: PAO1 mutant MIN16_4, nalC(T50P), pilM(Q62X); test: MIC, Sensititre custom plate; type: cell-based; details: Pseudomonas aeruginosa, PAO1, read-out: MIC, Sensititre
Description: as §4

[8] = test system: PAO1 mutant MIN8_1, nalD(R3C), pilM(Q62X); test: MIC, Sensititre custom plate; type: cell-based; details: Pseudomonas aeruginosa, PAO1, read-out: MIC, Sensititre
Description: as §4

[9] = test system: PAO1 mutant MIN4_RW01_3, pmrB(M292T); test: MIC, Sensititre custom plate; type: cell-based; details: Pseudomonas aeruginosa, PAO1, read-out: MIC, Sensititre
Description: as §4

[10] = test system: PAO1 mutant MIN4_RW01_4, pmrB(Y98N); test: MIC, Sensititre custom plate; type: cell-based; details: Pseudomonas aeruginosa, PAO1, read-out: MIC, Sensititre
Description: as §4

[11] = test system: PAO1 mutant MIN32_1, mexR(R63H), pilB(N349K), PA0646(V316G); test: MIC, Sensititre custom plate; type: cell-based; details: Pseudomonas aeruginosa, PAO1, read-out: MIC, Sensititre
Description: as §4

[12] = test system: PAO1 mutant MIN8_3, pilZ(nt18InsT); test: MIC, Sensititre custom plate; type: cell-based; details: Pseudomonas aeruginosa, PAO1, read-out: MIC, Sensititre
Description: as §4

P. aeruginosa PAO1, WT = test: MIC, Sensititre custom plate; type: cell-based; details: Pseudomonas aeruginosa, PAO1, read-out: MIC, Sensititre
Description: as §4

[13] = test system: PAO1 mutant MIN1_RW01_1, pmrB(Y98N); test: MIC, Sensititre custom plate; type: cell-based; details: Pseudomonas aeruginosa, PAO1, read-out: MIC, Sensititre
Description: as §4

[14] = test system: PAO1 mutant MIN2_RW01_3, parS(V152A); test: MIC, Sensititre custom plate; type: cell-based; details: Pseudomonas aeruginosa, PAO1, read-out: MIC, Sensititre
Description: as §4

[15] = test system: PAO1 mutant MIN1_RW01_3, pmrB(V215L); test: MIC, Sensititre custom plate; type: cell-based; details: Pseudomonas aeruginosa, PAO1, read-out: MIC, Sensititre
Description: as §4

[16] = test system: PAO1 mutant MIN2_RW01_2, pmrB(M292T); test: MIC, Sensititre custom plate; type: cell-based; details: Pseudomonas aeruginosa, PAO1, read-out: MIC, Sensititre
Description: as §4

[17] = test system: PAO1 mutant MIN8_4, pilZ(nt18InsT); test: MIC, Sensititre custom plate; type: cell-based; details: Pseudomonas aeruginosa, PAO1, read-out: MIC, Sensititre
Description: as §4

[18] = test system: PAO1 mutant MIN1_RW01_2, mexR(G58E), pilB(G326D), hutC(Y181X); test: MIC, Sensititre custom plate; type: cell-based; details: Pseudomonas aeruginosa, PAO1, read-out: MIC, Sensititre
Description: as §4

[19] = test system: PAO1 mutant MIN16_2, nalC(aa9∆4), pilQ(nt46∆1); test: MIC, Sensititre custom plate; type: cell-based; details: Pseudomonas aeruginosa, PAO1, read-out: MIC, Sensititre
Description: as §4

[20] = test system: PAO1 mutant MIN2_RW01_4, pmrB(M292T); test: MIC, Sensititre custom plate; type: cell-based; details: Pseudomonas aeruginosa, PAO1, read-out: MIC, Sensititre
Description: as §4

[21] = test system: PAO1 mutant MIN2_RW01_1, pmrB(V215L); test: MIC, Sensititre custom plate; type: cell-based; details: Pseudomonas aeruginosa, PAO1, read-out: MIC, Sensititre
Description: as §4

[22] = antibiotic MIC alone vs with RW01 100 mg/L

O=C(N[C@H](CO)[C@H](O)c1ccc([N+](=O)[O-])cc1)C(Cl)Cl [Chloramphenicol, chloramphenicol]
MIC (P. aeruginosa 125A): 128 µg/mL | Potentiation (fold) (P. aeruginosa 125A; [22]): ≥ 8 fold | MIC (P. aeruginosa PAOΔoprM): 4 µg/mL | MIC (P. aeruginosa 41B): 128 µg/mL | MIC (P. aeruginosa PAOUW∆oprF): 32 µg/mL | MIC (P. aeruginosa PAOΔmexZ): 32 µg/mL | MIC (P. aeruginosa 41A): 128 µg/mL | MIC (P. aeruginosa 125B): 64 µg/mL | Potentiation (fold) (P. aeruginosa 125B; [22]): ≥ 8 fold | MIC (P. aeruginosa PAO1): 32 µg/mL | MIC (P. aeruginosa PAOΔmexR): 32 µg/mL | MIC (P. aeruginosa PAOUW): > 512 µg/mL

C[C@H]1COc2c(N3CCN(C)CC3)c(F)cc3c(=O)c(C(=O)O)cn1c23 [Levofloxacin, levofloxacin]
MIC (P. aeruginosa 125A): 0.5 µg/mL | MIC (P. aeruginosa PAOΔoprM): 0.125 µg/mL | MIC (P. aeruginosa 41B): 1 µg/mL | MIC (P. aeruginosa PAOUW∆oprF): 0.5 µg/mL | MIC (P. aeruginosa PAOΔmexZ): 0.5 µg/mL | MIC (P. aeruginosa 41A): 2 µg/mL | MIC (P. aeruginosa 125B): 0.5 µg/mL | MIC (P. aeruginosa PAO1): 0.5 µg/mL | MIC (P. aeruginosa PAOΔmexR): 0.5 µg/mL | MIC (P. aeruginosa PAOUW): 4 µg/mL

CCN[C@@H]1C[C@H](N)[C@@H](O[C@H]2OC(CN)=CC[C@H]2N)[C@H](O)[C@H]1O[C@H]1OC[C@](C)(O)[C@H](NC)[C@H]1O [Netilmicin, netilmicin]
MIC (P. aeruginosa 125A): 8 µg/mL | MIC (P. aeruginosa PAOΔoprM): 1 µg/mL | MIC (P. aeruginosa 41B): 8 µg/mL | MIC (P. aeruginosa PAOUW∆oprF): 8 µg/mL | MIC (P. aeruginosa PAOΔmexZ): 8 µg/mL | MIC (P. aeruginosa 41A): 8 µg/mL | MIC (P. aeruginosa 125B): 8 µg/mL | MIC (P. aeruginosa PAO1): 8 µg/mL | MIC (P. aeruginosa PAOΔmexR): 8 µg/mL | MIC (P. aeruginosa PAOUW): 2 µg/mL

CCn1cc(C(=O)O)c(=O)c2cc(F)c(N3CCNCC3)cc21 [Norfloxacin, norfloxacin]
MIC (P. aeruginosa 125A): 1 µg/mL | MIC (P. aeruginosa PAOΔoprM): 0.25 µg/mL | MIC (P. aeruginosa 41B): 4 µg/mL | MIC (P. aeruginosa PAOUW∆oprF): 1 µg/mL | MIC (P. aeruginosa PAOΔmexZ): 1 µg/mL | MIC (P. aeruginosa 41A): 2 µg/mL | MIC (P. aeruginosa 125B): 1 µg/mL | MIC (P. aeruginosa PAO1): 0.5 µg/mL | MIC (P. aeruginosa PAOΔmexR): 1 µg/mL | MIC (P. aeruginosa PAOUW): 4 µg/mL

CC1(C)S[C@@H]2[C@H](NC(=O)[C@H](C(=O)O)c3ccsc3)C(=O)N2[C@H]1C(=O)O [TIC, ticarcillin]
MIC [1]: 16 µg/mL (≈ 41.6 µM) | MIC [2]: 16 µg/mL (≈ 41.6 µM) | MIC [3]: 16 µg/mL (≈ 41.6 µM) | MIC [4]: 64 µg/mL (≈ 166 µM) | MIC [5]: 64 µg/mL (≈ 166 µM) | MIC [6]: 128 µg/mL (≈ 333 µM) | MIC [7]: 64 µg/mL (≈ 166 µM) | MIC [8]: 64 µg/mL (≈ 166 µM) | MIC [9]: 16 µg/mL (≈ 41.6 µM) | MIC [10]: 16 µg/mL (≈ 41.6 µM) | MIC [11]: 128 µg/mL (≈ 333 µM) | MIC [12]: 64 µg/mL (≈ 166 µM) | MIC (P. aeruginosa PAO1, WT): 16 µg/mL (≈ 41.6 µM) | MIC [13]: 16 µg/mL (≈ 41.6 µM) | MIC [14]: 16 µg/mL (≈ 41.6 µM) | MIC [15]: 16 µg/mL (≈ 41.6 µM) | MIC [16]: 32 µg/mL (≈ 83.2 µM) | MIC [17]: 64 µg/mL (≈ 166 µM) | MIC [18]: 128 µg/mL (≈ 333 µM) | MIC [19]: 64 µg/mL (≈ 166 µM) | MIC [20]: 32 µg/mL (≈ 83.2 µM) | MIC [21]: 64 µg/mL (≈ 166 µM)
